Measurements from patent US4882348A, “2-(aminoalkylthio)imidazoles as dopamine-β-hydroxylase inhibitors” (SmithKline Beckman Corporation, priority 1987, dated 1989).

Key:
[1] = tested on: Spontaneously hypertensive rats; test: mean arterial blood pressure in spontaneously hypertensive rats; format: in vivo; conditions: 50 mg/kg intraperitoneally
Experimental: Spontaneously hypertensive rats were treated with 2-(2-aminoethylthio) 1-(3,5 difluorobenzyl)imidazole at a dose of 50 mg/kg intraperitoneally, and mean arterial blood pressure was monitored for four hours using an indwelling cannula in the femoral artery. […] The maximal blood pressure reduction was approximately 10 mmHg.

[2] = molecular target: T1, DBH (Bos taurus, UniProt P15101); test: in vitro DBH inhibition, conversion of tyramine to octopamine; format: biochemical; conditions: octopamine assayed as p-hydroxybenzaldehyde after sodium periodate oxidation, absorbance at 330 nm; read-out: IC50 (molar concentration of compound at which DBH activity was halved)
T1 sequence (P15101 1-610): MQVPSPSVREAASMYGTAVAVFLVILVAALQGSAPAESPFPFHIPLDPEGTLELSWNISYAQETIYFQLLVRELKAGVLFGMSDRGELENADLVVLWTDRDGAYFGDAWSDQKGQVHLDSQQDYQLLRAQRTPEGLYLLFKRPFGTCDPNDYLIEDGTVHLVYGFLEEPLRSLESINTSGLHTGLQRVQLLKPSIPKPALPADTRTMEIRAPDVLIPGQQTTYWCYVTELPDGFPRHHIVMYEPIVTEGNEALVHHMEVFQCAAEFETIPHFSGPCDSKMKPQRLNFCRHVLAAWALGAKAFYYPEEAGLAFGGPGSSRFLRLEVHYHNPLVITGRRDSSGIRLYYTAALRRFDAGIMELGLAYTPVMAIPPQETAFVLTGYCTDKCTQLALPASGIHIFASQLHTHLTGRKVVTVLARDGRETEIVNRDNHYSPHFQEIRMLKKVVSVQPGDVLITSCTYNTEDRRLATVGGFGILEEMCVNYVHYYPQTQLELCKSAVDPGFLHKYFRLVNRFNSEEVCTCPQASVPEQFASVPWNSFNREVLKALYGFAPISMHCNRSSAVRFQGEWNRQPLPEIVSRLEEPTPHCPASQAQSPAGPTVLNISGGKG
Experimental: Listed in Table I are Formula (I) compounds that were tested for in vitro DBH inhibition by a standard procedure for assaying conversion of tyramine to octopamine in the presence of DBH. J. J. Pisano, et al., Biochim. Biophys. 43, 566-568 (1960). Octopamine was assayed following sodium periodate oxidation to p-hydroxybenzaldehyde by measuring spectrophotometric absorbance at 330 nm. Inhibition is given in molar concentration of compound at which DBH activity was halved (IC50).

## Cl.Cl.NCCSc1nccn1Cc1cc(F)cc(F)c1 [2-(2-Aminoethylthio)-1-(3,5-difluorobenzyl)imidazole Dihydrochloride]
[1]; mean arterial blood pressure, femoral artery cannula
  maximal blood pressure reduction: approximately 10 mmHg
[1]; monitored for four hours
  blood pressure reduction compared to vehicle treated controls: significant blood pressure reductions
  time of lowest blood pressures after administration: 3 to 4 h
[1]; vs vehicle treated controls
  time to significant blood pressure reductions: ≤ 30 min
[2]
  IC50: 1800 µM
